# Test: Loss of asthma control (LOAC) events, 12-week ICS/LABA withdrawal study
# Format: in vivo, human
# Settings: 400 mg TID
# Source text: The general construct of this 12-week Loss of Asthma Control (LOAC) study consisted of a 4-week standardized ICS/LABA background therapy stabilization phase, a 4or 5-week background therapy withdrawal phase and a 3- or 4-week no background therapy phase, followed by a 4-week post IMP treatment safety follow-up period at the beginning of which, pre-screening asthma controller medications are restarted. Participants had access to short-acting β-agonist (SABA) reliever medication at all times during the protocol.
# The primary endpoint was the proportion of patients with LOAC. The key secondary endpoint for the study was change in pre-bronchodilator FEV1 from baseline at EOT.
# The primary endpoint was proportion of participants with LOAC during the 12-week treatment period.
# Note that if the number of participants in some regions was too low, these regions may have been pooled with other regions. This strategy also applied to all the rest of the analyses where region was one of the covariates.
# To assess the consistency in treatment effects across different subgroup levels, subgroup analyses were to be performed for the primary efficacy endpoint with respect to age group, gender, region, and other factors.
# Secondary endpoints included pre-bronchodilator FEV1 change from baseline at EOT, ACQ-5 score change from baseline, and AQLQ score change from baseline. Other secondary and exploratory endpoints are described in Table 2.
# [1] = all others than low EOS and low FeNO
# [2] = baseline IgA <Median (2190) mg/L
# [3] = baseline IgA ≥Median (2190) mg/L
# [4] = baseline IgE <Median (121.85) IU/mL
# [5] = baseline IgE ≥Median (121.85) IU/mL
# [6] = baseline pre-BD FEV1 <Median (2.1955) L
# [7] = baseline pre-BD FEV1 ≥Median (2.1955) L
# [8] = blood eosinophil level 1 <0.15 (10^9/L)
# [9] = blood eosinophil level 1 ≥0.15-<0.3 (10^9/L)
# [10] = blood eosinophil level 1 ≥0.3 (10^9/L)
# [11] = blood eosinophil level 2 <0.3 (10^9/L)
# [12] = blood eosinophil level 2 ≥0.3 (10^9/L)
# [13] = low EOS (<0.15) and low FeNO (<25)
# [14] = percent predicted FEV1 group 1 <Median (77)
# [15] = percent predicted FEV1 group 1 ≥Median (77)
# [16] = percent predicted FEV1 group 2 <80
# [17] = percent predicted FEV1 group 2 ≥80
smiles,measurement,setting,value
"CC(C)(C=C(C#N)C(=O)N1CCC[C@@H](n2nc(-c3ccc(Oc4ccccc4)cc3F)c3c(N)ncnc32)C1)N1CCN(C2COC2)CC1 (mixture of isomers) [rilzabrutinib, (R)-2-[3-[4-amino-3-(2-fluoro-4-phenoxy-phenyl)pyrazolo[3,4-d]pyrimidin-1-yl]piperidine-1-carbonyl]-4-methyl-4-[4-(oxetan-3-yl)piperazin-1-yl]pent-2-enenitrile]",OR vs. placebo,[1],0.752
same,RD vs. Placebo,[1],−0.049
same,"LOAC, number",atopic medical conditions: No,8
same,OR vs. placebo,atopic medical conditions: No,0.493
same,RD vs. Placebo,atopic medical conditions: No,−0.130
same,"LOAC, number",atopic medical conditions: Yes,4
same,OR vs. placebo,atopic medical conditions: Yes,0.821
same,RD vs. Placebo,atopic medical conditions: Yes,−0.031
same,"LOAC, number",background ICS dose High,6
same,OR vs. placebo,background ICS dose High,0.911
same,RD vs. Placebo,background ICS dose High,−0.011
same,"LOAC, number",background ICS dose Medium,6
same,OR vs. placebo,background ICS dose Medium,0.421
same,RD vs. Placebo,background ICS dose Medium,−0.173
same,"LOAC, number",baseline ACQ-5 >2,6
same,OR vs. placebo,baseline ACQ-5 >2,0.346
same,RD vs. Placebo,baseline ACQ-5 >2,−0.181
same,"LOAC, number",baseline ACQ-5 ≤2,6
same,OR vs. placebo,baseline ACQ-5 ≤2,1.162
same,RD vs. Placebo,baseline ACQ-5 ≤2,0.025
same,"LOAC, number",baseline FeNO level 1 <25 ppb,9
same,OR vs. placebo,baseline FeNO level 1 <25 ppb,0.567
same,RD vs. Placebo,baseline FeNO level 1 <25 ppb,−0.065
same,"LOAC, number",baseline FeNO level 1 ≥25 ppb,3
same,OR vs. placebo,baseline FeNO level 1 ≥25 ppb,0.798
same,RD vs. Placebo,baseline FeNO level 1 ≥25 ppb,−0.053
same,"LOAC, number",baseline FeNO level 2 <35 ppb,9
same,OR vs. placebo,baseline FeNO level 2 <35 ppb,0.655
same,RD vs. Placebo,baseline FeNO level 2 <35 ppb,−0.029
same,"LOAC, number",baseline FeNO level 2 ≥35 ppb,3
same,OR vs. placebo,baseline FeNO level 2 ≥35 ppb,0.628
same,RD vs. Placebo,baseline FeNO level 2 ≥35 ppb,−0.094
same,"LOAC, number",[2],6
same,OR vs. placebo,[2],0.774
same,RD vs. Placebo,[2],−0.011
same,"LOAC, number",[3],6
same,OR vs. placebo,[3],0.514
same,RD vs. Placebo,[3],−0.120
same,"LOAC, number",baseline IgE <100 IU/mL,4
same,OR vs. placebo,baseline IgE <100 IU/mL,0.602
same,RD vs. Placebo,baseline IgE <100 IU/mL,−0.085
same,"LOAC, number",[4],6
same,OR vs. placebo,[4],0.681
same,RD vs. Placebo,[4],−0.070
same,"LOAC, number",baseline IgE ≥100 IU/mL,8
same,OR vs. placebo,baseline IgE ≥100 IU/mL,0.522
same,RD vs. Placebo,baseline IgE ≥100 IU/mL,−0.122
same,"LOAC, number",[5],6
same,OR vs. placebo,[5],0.510
same,RD vs. Placebo,[5],−0.122
same,"LOAC, number",[6],7
same,OR vs. placebo,[6],0.827
same,RD vs. Placebo,[6],−0.036
same,OR vs. placebo,[7],0.362
same,RD vs. Placebo,[7],−0.176
same,"LOAC, number",[8],6
same,OR vs. placebo,[8],0.716
same,RD vs. Placebo,[8],−0.062
same,"LOAC, number",[9],4
same,OR vs. placebo,[9],1.619
same,RD vs. Placebo,[9],0.072
same,"LOAC, number",[10],2
same,OR vs. placebo,[10],0.139
same,RD vs. Placebo,[10],−0.363
same,"LOAC, number",[11],10
same,OR vs. placebo,[11],1.019
same,RD vs. Placebo,[11],0.047
same,"LOAC, number",[12],2
same,OR vs. placebo,[12],0.146
same,RD vs. Placebo,[12],−0.350
same,"LOAC, number",[13],4
same,OR vs. placebo,[13],0.441
same,RD vs. Placebo,[13],−0.157
same,"LOAC, number",[14],4
same,OR vs. placebo,[14],0.452
same,RD vs. Placebo,[14],−0.129
same,"LOAC, number",[15],8
same,OR vs. placebo,[15],0.599
same,RD vs. Placebo,[15],−0.078
same,"LOAC, number",[16],7
same,OR vs. placebo,[16],0.736
same,RD vs. Placebo,[16],−0.047
same,OR vs. placebo,[17],0.429
same,RD vs. Placebo,[17],−0.139
same,"LOAC, number",smoking history Former,2
same,OR vs. placebo,smoking history Former,0.500
same,RD vs. Placebo,smoking history Former,−0.167
same,"LOAC, number",smoking history Never,10
same,OR vs. placebo,smoking history Never,0.551
same,RD vs. Placebo,smoking history Never,−0.102

# — patent US20260345619A1 (Principia Biopharma Inc., priority 2023, published 2026)
